Results taken from patent US4379155A, “3,5-Disubstituted-1H-1,2,4-triazole derivatives” (priority 1981, dated 1983).

System: rats
Experiment: Anti-reproductive activity in pregnant rats, subcutaneous (5 days from day 6, autopsy day 16)
Assay type: in vivo, Sprague-Dawley rats
Settings: Rattus norvegicus, sc, 384 h, 20 mg/kg s.c., five consecutive days from day 6 of pregnancy, sesame oil, read-out: reduction of live fetuses, % of the treated rats
Protocol: The same criteria and experimental conditions as above were also applied when the anti-reproductive activity of the compounds of the invention was investigated in other animal species such as, for instance, rats, dogs, monkeys and baboons. In representative experiments, female Sprague-Dawley rats weighing from 200 to 300 g. were treated subcutaneously with a dosage of 20 mg/kg of the compound to be tested, dissolved in sesame oil, for five consecutive days starting from day 6 of pregnancy.

Row | SMILES | responders at 20 mg/kg
1 | CC(C)c1ccccc1-c1nc(-c2ccccc2)n[nH]1 [Example 15, 5-(o-Isopropylphenyl)-3-phenyl-1H-1,2,4-triazole] | ≥ 60%
2 | C=CCOc1cccc(-c2n[nH]c(-c3ccccc3CC)n2)c1 [Example 13, 3-(m-Allyloxyphenyl)-5-(o-ethylphenyl)-1H-1,2,4-triazole] | ≥ 60%
3 | Cc1ccccc1-c1nc(-c2ccc(-c3ccccc3)cc2)n[nH]1 [Example 11, 3-(1,1'-Biphenyl-4-yl)-5-(o-tolyl)-1H-1,2,4-triazole] | ≥ 60%
4 | CCc1ccccc1-c1nc(-c2ccc(Cl)cc2)n[nH]1 [Example 14, 3-(p-Chlorophenyl)-5-(o-ethylphenyl)-1H-1,2,4-triazole] | ≥ 60%
5 | CCOc1cccc(-c2n[nH]c(-c3ccccc3C)n2)c1 [Example 9, 3-(m-Ethoxyphenyl)-5-(o-tolyl)-1H-1,2,4-triazole] | ≥ 60%
6 | COc1cccc(-c2n[nH]c(-c3ccccc3C(C)C)n2)c1 [Example 16, 5-(o-Isopropylphenyl)-3-(m-methoxyphenyl)-1H-1,2,4-triazole] | ≥ 60%
7 | C=CCOc1cccc(-c2n[nH]c(-c3ccccc3C)n2)c1 [Example 10, 3-(m-Allyloxyphenyl)-5-(o-tolyl)-1H-1,2,4-triazole] | ≥ 60%

System: hamsters
Experiment: Post-coital antifertility activity in pregnant hamsters, subcutaneous (days 4-8, autopsy day 14)
Assay type: in vivo, Syrian golden hamsters
Settings: 10 mg/kg s.c. daily for 5 days, days 4-8 of pregnancy, sesame oil
Protocol: Representative experiments for assessing antifertility activity were carried out with femal Syrian golden hamsters weighing 100 to 130 g. The animals were mated and the presence of sperm in the vagina was taken as evidence of mating. […] Pregnancy was later confirmed at the time of autopsy by presence of fetuses or implantation sites in the uterus. Even if an animal aborts the fetus, implantation scars still remain as evidence that the animal has been pregnant.
The animals were autopsied on day 14 of pregnancy and the uteri were examined for evidence of pregnancy (implantation sites, fetal resorptions or live fetuses), hemorrage, and evidence of abnormalities of the uterus, placenta or fetuses.

Row | SMILES | antifertility activity (active: reduction of live fetuses in at least 60% of the treated animals)
8 | CCc1ccccc1-c1nc(-c2cccc(F)c2)n[nH]1 [Example 18, 5-(o-Ethylphenyl)-3-(m-fluorophenyl)-1H-1,2,4-triazole] | active
9 | COc1ccccc1-c1n[nH]c(-c2ccccc2C)n1 [Example 4, 3-(o-Methoxyphenyl)-5-(o-tolyl)-1H-1,2,4-triazole] | active
10 | COc1cccc(-c2n[nH]c(-c3ccccc3C)n2)c1 [Example 1, 3-(m-Methoxyphenyl)-5-(o-tolyl)-1H-1,2,4-triazole] | active
11 | Cc1cc(Cl)ccc1-c1nc(-c2ccccc2)n[nH]1 [Example 29, 5-(4-Chloro-2-methylphenyl)-3-phenyl-1H-1,2,4-triazole] | active
12 | COc1cccc(-c2n[nH]c(-c3ccc(Cl)cc3C)n2)c1 [Example 30, 5-(4-Chloro-2-methylphenyl)-3-(m-methoxyphenyl)-1H-1,2,4-triazole] | active
13 | c1ccc(-c2n[nH]c(-c3ccccc3)n2)cc1 [3,5-diphenyl-1H-1,2,4-triazole, reference compound] | much less active
14 | COc1cccc(-c2n[nH]c(-c3ccc(C)cc3C)n2)c1 [Example 26, 5-(2,4-Dimethylphenyl)-3-(m-methoxyphenyl)-1H-1,2,4-triazole] | active
15 | CCc1ccccc1-c1nc(-c2ccc3c(c2)OCO3)n[nH]1 [Example 22, 5-(o-Ethylphenyl)-3-(3,4-methylenedioxyphenyl)-1H-1,2,4-triazole] | active
16 | COc1cccc(-c2n[nH]c(-c3cc(Cl)ccc3C)n2)c1 [Example 32, 5-(5-Chloro-2-methylphenyl)-3-(m-methoxyphenyl)-1H-1,2,4-triazole] | active
17 | Cc1ccc(-c2nc(-c3ccccc3)n[nH]2)c(C)c1 [Example 25, 5-(2,4-Dimethylphenyl)-3-phenyl-1H-1,2,4-triazole] | active
